Data taken from patent US12077503B2, “Substituted cyclic amides and their use as herbicides” (FMC CORPORATION, priority 2015, dated 2024).

Tests used:
Type in all cases: in vivo
Kochia (Kochia scoparia) [1] = assay: Test A preemergence; details: Bassia scoparia, pre-emergence, 240 h, 0 to 100 scale where 0 is no effect and 100 is complete control, read-out: Kochia plant response rating
Method in brief: (§1)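 Visual injury, scored on a 0–100 scale relative to untreated controls, was recorded about 10 d after application. Treatments were a preemergence soil spray over planted seeds or a postemergence spray on plants at the one- to two-leaf stage, 2 to 10 cm tall, all in loam soil–sand blend in the greenhouse.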

[2] = tested on: barnyardgrass (Echinochloa crus-galli); assay: Test A preemergence; details: Echinochloa crus-galli, pre-emergence, 240 h, 0 to 100 scale where 0 is no effect and 100 is complete control, read-out: Barnyardgrass plant response rating
Method in brief: as §1

[3] = tested on: giant foxtail (Setaria faberii); assay: Test A preemergence; details: Setaria faberi, pre-emergence, 240 h, 0 to 100 scale where 0 is no effect and 100 is complete control, read-out: Foxtail, Giant plant response rating
Method in brief: as §1

[4] = tested on: pigweed (Amaranthus retroflexus); assay: Test A preemergence; details: Amaranthus retroflexus, pre-emergence, 240 h, 0 to 100 scale where 0 is no effect and 100 is complete control, read-out: Pigweed plant response rating
[5] = tested on: ragweed (common ragweed, Ambrosia elatior); assay: Test A preemergence; details: Ambrosia artemisiifolia, pre-emergence, 240 h, 0 to 100 scale where 0 is no effect and 100 is complete control, read-out: Ragweed plant response rating
Method in brief: as §1

[6] = tested on: ryegrass, Italian (Italian ryegrass, Lolium multiflorum); assay: Test A preemergence; details: Lolium multiflorum, pre-emergence, 240 h, 0 to 100 scale where 0 is no effect and 100 is complete control, read-out: Ryegrass, Italian plant response rating
Method in brief: as §1

[7] = tested on: Galium (catchweed bedstraw, Galium aparine); assay: Test A postemergence; details: Galium, post-emergence, 240 h
Method in brief: as §1

Kochia (Kochia scoparia) [8] = assay: Test A postemergence; details: Bassia scoparia, post-emergence, 240 h
Method in brief: as §1

[9] = tested on: barnyardgrass (Echinochloa crus-galli); assay: Test A postemergence; details: Echinochloa crus-galli, post-emergence, 240 h
Method in brief: as §1

[10] = tested on: blackgrass (Alopecurus myosuroides); assay: Test A postemergence; details: Alopecurus myosuroides, post-emergence, 240 h
Method in brief: as §1

corn (Zea mays) = assay: Test A postemergence; details: Zea mays, post-emergence, 240 h
Method in brief: as §1

[11] = tested on: giant foxtail (Setaria faberii); assay: Test A postemergence; details: Setaria faberi, post-emergence, 240 h
Method in brief: as §1

[12] = tested on: pigweed (Amaranthus retroflexus); assay: Test A postemergence; details: Amaranthus retroflexus, post-emergence, 240 h, 125 g ai/ha, postemergence, visual injury vs untreated controls after approx. 10 d; 0 = no effect, 100 = complete control; read-out: Pigweed plant response rating (0 to 100 scale)
Method in brief: as §1

[13] = tested on: ragweed (common ragweed, Ambrosia elatior); assay: Test A postemergence; details: Ambrosia artemisiifolia, post-emergence, 240 h, 125 g ai/ha, postemergence, visual injury vs untreated controls after approx. 10 d; 0 = no effect, 100 = complete control; read-out: Ragweed plant response rating (0 to 100 scale)
Method in brief: as §1

[14] = tested on: ryegrass, Italian (Italian ryegrass, Lolium multiflorum); assay: Test A postemergence; details: Lolium multiflorum, post-emergence, 240 h, 125 g ai/ha, postemergence, visual injury vs untreated controls after approx. 10 d; 0 = no effect, 100 = complete control; read-out: Ryegrass, Italian plant response rating (0 to 100 scale)
Method in brief: as §1

[15] = tested on: wheat (Triticum aestivum); assay: Test A postemergence; details: Triticum aestivum, post-emergence, 240 h, 125 g ai/ha, postemergence, visual injury vs untreated controls after approx. 10 d; 0 = no effect, 100 = complete control; read-out: Wheat plant response rating (0 to 100 scale)
Method in brief: as §1

[16] = tested on: barnyardgrass (Echinochloa crus-galli); assay: Test B flooded paddy test; details: Echinochloa crus-galli, 250 g ai/ha, Flood; 0 to 100 scale where 0 is no effect and 100 is complete control; read-out: Barnyardgrass plant response rating
Method in brief: (§2)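 Rating scale 0–100 (visual, vs untreated controls) after a 13–15 d greenhouse period; application to the flood layer, 3 cm above soil and maintained; plants at 2-leaf stage when treated.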

[17] = tested on: ducksalad (Heteranthera limosa); assay: Test B flooded paddy test; details: Heteranthera limosa, 250 g ai/ha, Flood; 0 to 100 scale where 0 is no effect and 100 is complete control; read-out: Ducksalad plant response rating
Method in brief: as §2

rice (Oryra sativa) = assay: Test B flooded paddy test; details: Oryza sativa, 250 g ai/ha, Flood; 0 to 100 scale where 0 is no effect and 100 is complete control; read-out: Rice plant response rating
Method in brief: as §2

[18] = tested on: sedge, umbrella (small-flower umbrella sedge, Cyperus difformis); assay: Test B flooded paddy test; details: Cyperus difformis, 250 g ai/ha, Flood; 0 to 100 scale where 0 is no effect and 100 is complete control; read-out: Sedge, Umbrella plant response rating
Method in brief: as §2

[19] = 125 g ai/ha, preemergence, approx. 10 d

Work on `CN1C[C@H](c2ccc([Si](C)(C)C)cc2)[C@@H](C(=O)Nc2cccc(F)c2F)C1=O` [Compound 1168] yielded a pest or weed control at 31 g/ha (Kochia (Kochia scoparia) [1]; 31 g ai/ha, Preemergence) of 0%, a pest or weed control at 125 g/ha (Kochia (Kochia scoparia) [1]; [19]) of 0% and a pest or weed control at 31 g/ha ([2]; 31 g ai/ha, Preemergence) of 0%. The pest or weed control at 125 g/ha [2, 19] was 0%, the pest or weed control at 31 g/ha ([3]; 31 g ai/ha, Preemergence) was 0% and the pest or weed control at 125 g/ha [3, 19] was 30%. The pest or weed control at 31 g/ha ([4]; 31 g ai/ha, Preemergence) was 0%, the pest or weed control at 125 g/ha [4, 19] was 0% and the pest or weed control at 31 g/ha ([5]; 31 g ai/ha, Preemergence) was 0%. The pest or weed control at 125 g/ha [5, 19] was 0%, the pest or weed control at 31 g/ha ([6]; 31 g ai/ha, Preemergence) was 0% and the pest or weed control at 125 g/ha [6, 19] was 0%. For the same compound, the pest or weed control at 125 g/ha ([7]; 125 g ai/ha, postemergence, visual injury vs untreated controls after approx. 10 d, 0 = no effect, 100 = complete control, read-out: Galium plant response rating (0 to 100 scale)) was 30%, the pest or weed control at 31 g/ha ([7]; Postemergence, 31 g ai/ha, visual injury after approx. 10 d, 0 to 100 scale, 0 no effect, 100 complete control, read-out: Plant response rating, Galium) was 0% and the pest or weed control at 125 g/ha (Kochia (Kochia scoparia) [8]; 125 g ai/ha, postemergence, visual injury vs untreated controls after approx. 10 d, 0 = no effect, 100 = complete control, read-out: Kochia plant response rating (0 to 100 scale)) was 0%. For the same compound, the pest or weed control at 31 g/ha (Kochia (Kochia scoparia) [8]; Postemergence, 31 g ai/ha, visual injury after approx. 10 d, 0 to 100 scale, 0 no effect, 100 complete control, read-out: Plant response rating, Kochia) was 0%, the pest or weed control at 125 g/ha ([9]; 125 g ai/ha, postemergence, visual injury vs untreated controls after approx. 10 d, 0 = no effect, 100 = complete control, read-out: Barnyardgrass plant response rating (0 to 100 scale)) was 0% and the pest or weed control at 31 g/ha ([9]; Postemergence, 31 g ai/ha, visual injury after approx. 10 d, 0 to 100 scale, 0 no effect, 100 complete control, read-out: Plant response rating, Barnyardgrass) was 0%. For the same compound, the pest or weed control at 125 g/ha ([10]; 125 g ai/ha, postemergence, visual injury vs untreated controls after approx. 10 d, 0 = no effect, 100 = complete control, read-out: Blackgrass plant response rating (0 to 100 scale)) was 0%, the pest or weed control at 31 g/ha ([10]; Postemergence, 31 g ai/ha, visual injury after approx. 10 d, 0 to 100 scale, 0 no effect, 100 complete control, read-out: Plant response rating, Blackgrass) was 0% and the plant injury at 125 g/ha (corn (Zea mays); 125 g ai/ha, postemergence, visual injury vs untreated controls after approx. 10 d, 0 = no effect, 100 = complete control, read-out: Corn plant response rating (0 to 100 scale)) was 0%. The Corn plant response rating (crop injury, 0 = no effect, 100 = complete kill) at 31 g/ha (corn (Zea mays); Postemergence, 31 g ai/ha, visual injury after approx. 10 d, 0 to 100 scale, 0 no effect, 100 complete control) was 0%, the pest or weed control at 125 g/ha ([11]; 125 g ai/ha, postemergence, visual injury vs untreated controls after approx. 10 d, 0 = no effect, 100 = complete control, read-out: Foxtail, Giant plant response rating (0 to 100 scale)) was 20% and the pest or weed control at 31 g/ha ([11]; Postemergence, 31 g ai/ha, visual injury after approx. 10 d, 0 to 100 scale, 0 no effect, 100 complete control, read-out: Plant response rating, Foxtail, Giant) was 0%. For the same compound, the pest or weed control at 125 g/ha [12] was 0%, the pest or weed control at 125 g/ha [13] was 0% and the pest or weed control at 125 g/ha [14] was 0%. It also gave a plant injury at 125 g/ha [15] of 20%, a pest or weed control at 250 g/ha [16] of 40% and a pest or weed control at 250 g/ha [17] of 0%. It also gave a pest or weed control at 250 g/ha (rice (Oryra sativa)) of 30% and a pest or weed control at 250 g/ha [18] of 0%.
